Counter-ions that a name gives are not always drawn.

Common to all, as to format: biochemical
In experiment [1] the target is T1, PDGF receptor tyrosine kinase (mouse PDGF-β) (Mus musculus, UniProt P05622).
T1 construct: PCR primers are designed to amplify a fragment of DNA that codes for the intracellular tyrosine kinase domain; made in house; host or cells: Sf9 insect cells (baculovirus), cell lysate
Kind of experiment: PDGFr tyrosine kinase assay (poly glutamate-tyrosine phosphorylation). The conditions noted are these: Table 1; 10 minutes at 25° C. On the procedure: Platelet Derived Growth Factor Receptor (PDGFr) and Fibroblast Growth Factor Receptor (FGFr)
Full length cDNAs for the mouse PDGF-β and human FGF-1 (flg) receptor tyrosine kinases were obtained from J. Escobedo and are prepared as described in J. Biol. Chem., 262: 1482-1487 (1991). PCR primers are designed to amplify a fragment of DNA that codes for the intracellular tyrosine kinase domain. The fragment is melded into a baculovirus vector, cotransfected with AcMNPV DNA, and the recombinant virus isolated. SF9 insect cells are infected with the virus to overexpress the protein, and the cell lysate is used for the assay.
The assay is performed in 96-well plates (100 μL/incubation/well), and conditions are optimized to measure the incorporation of ^32 p from [γ^32 P]-ATP into a glutamate-tyrosine copolymer substrate. Briefly, to each well is added 82.5 μL of incubation buffer containing 25 mM Hepes (pH 7.0), 150 mM NaCl, 0.1% Triton X-100, 0.2 mM PMSF, 0.2 mM sodium vanadate, 10 mM manganese chloride, and 750 μg/mL of poly (4:1) glutamate-tyrosine followed by 2.5 μL of inhibitor and 5 μL of enzyme lysate (7.5 μg/μL FGFR-TK or 6.0 μg/μL PDGFR-TK) to initiate the reaction. Following a 10 minute incubation at 25° C., 10 μL of [γ^32 P]-ATP (0.4 μCi plus 50 μM ATP) is added to each well and samples are incubated for an additional 10 minutes at 25° C. The reaction is terminated by the addition of 100 μL of 30% trichloroacetic acid (TCA) containing 20 mM sodium pyrophosphate and precipitation of material onto glass fiber filter mats (Wallac). Filters are washed 3 times with 15% TCA containing 100 mM sodium pyrophosphate and the radioactivity retained on the filters counted in a Wallac 1250 Betaplate reader. Nonspecific activity is defined as radioactivity retained on the filters following incubation of samples with buffer alone (no enzyme). Specific enzymatic activity is defined as total activity (enzyme plus buffer) minus nonspecific activity.

The target of experiment [2] is T2, FGF receptor tyrosine kinase (human FGF-1 (flg)) (Homo sapiens, UniProt P11362).
T2 construct: PCR primers are designed to amplify a fragment of DNA that codes for the intracellular tyrosine kinase domain; made in house; host or cells: Sf9 insect cells (baculovirus), cell lysate
T2 sequence (P11362 478-767 limits assumed): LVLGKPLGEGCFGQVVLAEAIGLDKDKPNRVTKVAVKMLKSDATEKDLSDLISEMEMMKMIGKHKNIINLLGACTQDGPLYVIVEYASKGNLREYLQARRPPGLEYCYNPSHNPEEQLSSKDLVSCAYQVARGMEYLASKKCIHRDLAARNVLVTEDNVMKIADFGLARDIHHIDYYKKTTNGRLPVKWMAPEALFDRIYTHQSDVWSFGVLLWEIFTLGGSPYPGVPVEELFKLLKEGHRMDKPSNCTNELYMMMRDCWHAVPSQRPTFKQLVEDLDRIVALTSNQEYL
Kind of experiment: FGFr tyrosine kinase assay (poly glutamate-tyrosine phosphorylation). Conditions: Table 1; 10 minutes at 25° C. On the procedure:
Platelet Derived Growth Factor Receptor (PDGFr) and Fibroblast Growth Factor Receptor (FGFr) Full length cDNAs for the mouse PDGF-β and human FGF-1 (flg) receptor tyrosine kinases were obtained from J. Escobedo and are prepared as described in J. Biol. Chem., 262: 1482-1487 (1991). PCR primers are designed to amplify a fragment of DNA that codes for the intracellular tyrosine kinase domain. The fragment is […] into a baculovirus vector, cotransfected with AcMNPV DNA, and the recombinant virus isolated. SF9 insect cells are infected with the virus to overexpress the protein, and the cell lysate is used for the […] and FGFr The assay is performed in 96-well plates (100 μL/incubation/well), and conditions are optimized to measure the incorporation of ^32 p from [γ^32 P]-ATP into a glutamate-tyrosine copolymer substrate. […] The reaction is terminated by the addition of 100 μL of 30% trichloroacetic acid (TCA) containing 20 mM sodium pyrophosphate and precipitation of material onto glass fiber filter mats (Wallac). Filters are washed 3 times with 15% TCA containing 100 mM sodium pyrophosphate and the radioactivity retained on the filters counted in a Wallac 1250 Betaplate reader. Nonspecific activity is defined as radioactivity retained on the filters following incubation of samples with buffer alone (no enzyme). Specific enzymatic activity is defined as total activity (enzyme plus buffer) minus nonspecific activity.

The target of the next experiment is T3, c-Src (Homo sapiens, UniProt P12931).
T3 construct: made in house; host or cells: baculovirus infected insect cells
T3 sequence (P12931 whole entry, species assumed): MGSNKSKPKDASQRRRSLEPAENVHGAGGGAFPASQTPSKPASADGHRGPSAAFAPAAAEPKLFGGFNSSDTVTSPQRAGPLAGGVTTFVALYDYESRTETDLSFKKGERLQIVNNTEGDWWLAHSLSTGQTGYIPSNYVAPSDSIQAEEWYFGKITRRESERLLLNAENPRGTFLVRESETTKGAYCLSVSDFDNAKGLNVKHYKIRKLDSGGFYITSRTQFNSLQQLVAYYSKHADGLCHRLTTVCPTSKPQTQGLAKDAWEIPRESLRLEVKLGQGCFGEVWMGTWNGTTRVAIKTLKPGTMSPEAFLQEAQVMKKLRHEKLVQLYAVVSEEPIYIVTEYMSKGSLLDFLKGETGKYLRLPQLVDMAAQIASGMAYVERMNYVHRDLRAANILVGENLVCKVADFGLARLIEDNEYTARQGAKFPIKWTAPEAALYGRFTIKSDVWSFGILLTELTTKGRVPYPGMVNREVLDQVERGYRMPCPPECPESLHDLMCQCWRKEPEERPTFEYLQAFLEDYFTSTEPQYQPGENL
Kind of experiment: c-Src kinase assay. The conditions noted are these: Table 1; 5 μM ATP, room temperature, 10 minutes. The procedure:
c-Src kinase is purified from baculovirus infected insect cell lysates using an antipeptide monoclonal antibody directed against the N-terminal 2-17 amino acids as described previously by Fry, et al, Anticancer Drug Design. 9: 331-351 (1994). […] At the end of the lysate incubation, the beads are rinsed 3 times in lysis buffer, resuspended in lysis buffer containing 10% glycerol, and frozen. These latex beads are thawed, rinsed 3 times in assay buffer which is comprised of 40 mM tris pH 7.5, 5 mM magnesium chloride, and suspended in the same buffer. […] The reaction is started at room temperature by addition of the ATP and quenched 10 minutes later by the addition of 125 μL of 30% TCA, 0.1 M sodium pyrophosphate for 15 minutes on ice. The plate is then filtered and the wells washed with two 250-μL aliquots of 15% TCA, 0.1 M pyrophosphate. The filters are punched, counted in a liquid scintillation counter, and the data examined for inhibitory activity in comparison to a known inhibitor such as erbstatin. The method is described more fully in J. Med. Chem., 37: 598-609 (1994).

The target of the next experiment is T4, insulin receptor (INSr) (Homo sapiens, UniProt P06213).
T4 construct: An assay using the intracellular kinase domains of insulin receptor (INSr) is performed
T4 sequence (P06213 1023-1298 limits assumed, species assumed): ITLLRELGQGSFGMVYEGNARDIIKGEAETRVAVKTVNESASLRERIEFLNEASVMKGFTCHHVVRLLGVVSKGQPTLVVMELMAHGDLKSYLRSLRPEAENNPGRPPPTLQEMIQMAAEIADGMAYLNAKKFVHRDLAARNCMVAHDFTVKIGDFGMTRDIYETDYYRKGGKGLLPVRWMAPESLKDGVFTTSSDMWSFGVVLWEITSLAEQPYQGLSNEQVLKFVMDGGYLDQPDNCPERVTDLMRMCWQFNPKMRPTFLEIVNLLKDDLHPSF
Kind of experiment: Insulin receptor kinase assay. Conditions: Table 1; as for EGF receptor with 10 mM manganese chloride.

T1 sequence (P05622 599-961 limits assumed): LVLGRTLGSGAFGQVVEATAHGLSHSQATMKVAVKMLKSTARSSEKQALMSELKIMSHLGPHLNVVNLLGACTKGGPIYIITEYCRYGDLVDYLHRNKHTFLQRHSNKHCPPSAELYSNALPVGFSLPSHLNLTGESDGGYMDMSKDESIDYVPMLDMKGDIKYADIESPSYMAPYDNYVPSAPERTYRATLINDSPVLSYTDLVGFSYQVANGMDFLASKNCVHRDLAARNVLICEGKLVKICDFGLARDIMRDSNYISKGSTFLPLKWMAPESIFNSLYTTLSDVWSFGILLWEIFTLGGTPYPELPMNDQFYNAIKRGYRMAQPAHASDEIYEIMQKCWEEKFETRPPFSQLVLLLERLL

Turning to `C=CCOc1ccc2c(c1)ncn2-c1ccccc1` [Example 32, 5-Allyloxy-1-phenylbenzimidazole Hydrochloride], the IC50 in experiment [1] is 600 nM; in experiment [2] it was 35 µM; against c-Src, over 50 µM; against insulin receptor (INSr) it was over 50 µM.

Turning to `COc1ccc2c(ncn2-c2ccccc2)c1O` [Example 63, 4-Hydroxy-5-methoxy-1-phenylbenzimidazole Hydrochloride], the IC50 in experiment [1] was under 50000 nM; on c-Src, 40 µM.

`COc1ccc2c(c1)ncn2-c1cccs1` [Example 55, 5-Methoxy-1-(2-thienyl)benzimidazole Hydrochloride]: the IC50 in experiment [1] was 2500 nM; in experiment [2], 5.3 µM; on c-Src, over 50 µM; against insulin receptor (INSr), over 50 µM.

In the case of `CCCOc1ccc2c(c1)ncn2-c1ccccc1` [Example 29, 1-Phenyl-5-propoxybenzimidazole hydrochloride], the IC50 was 300 nM in experiment [1], 35 µM in experiment [2], over 50 µM against c-Src and over 50 µM on insulin receptor (INSr).

Take `CC(=O)Nc1ccc2c(c1)ncn2-c1ccccc1` [Example 23, 5-Acetamido-1-phenylbenzimidazole Hydrochloride]: the IC50 in experiment [1] is 3300 nM; in experiment [2], 32 µM; against c-Src it was under 50 µM; on insulin receptor (INSr) it was over 50 µM.

As for `CCOc1ccc2ncn(-c3ccccc3)c2c1` [Example 44, 6-Ethoxy-1-phenylbenzimidazole], the IC50 in experiment [1] was 9600 nM; in experiment [2] it was over 50 µM.

Consider `COc1ccc2c(ncn2-c2ccccc2)c1OC` [Example 60, 4,5-Dimethoxy-1-phenylbenzimidazole Hydrochloride], for which the IC50 against c-Src is over 50 µM.

With `Cc1cc2c(cc1O)ncn2-c1ccccc1` [Example 50, 5-Hydroxy-6-methyl-1-phenylbenzimidazole Hydrochloride], the IC50 against insulin receptor (INSr) was over 50 µM.

Turning to `CCOc1ccc2c(c1)ncn2-c1ccccc1` [Example 28, 5-Ethoxy-1-phenylbenzimidazole Hydrochloride], the IC50 in experiment [1] was 200 nM; in experiment [2] it was 26 µM; against insulin receptor (INSr), over 50 µM.

As to `OCCCCOc1ccc2c(c1)ncn2-c1ccccc1` [Example 57, 5-(4-Hydroxybutoxy)-1-phenylbenzimidazole Hydrochloride], the IC50 is 500 nM in experiment [1], 25 µM in experiment [2] and over 50 µM on c-Src.

`C=CC(=O)Nc1ccc2c(c1)ncn2-c1ccccc1` [Example 25, 5-Acrylamido-1-phenylbenzimidazole]: the IC50 is 5300 nM in experiment [1], 37 µM in experiment [2] and over 50 µM on c-Src.

Consider `CCCCOc1ccc2c(c1)ncn2-c1ccccc1` [Example 31, 5-Butoxy-1-phenylbenzimidazole Hydrochloride], for which the IC50 on insulin receptor (INSr) was over 50 µM.

Regarding `COc1ccc(-n2cnc3ccccc32)cc1` [Example 5, 1-(4-Methoxyphenyl)benzimidazole Hydrochloride], the IC50 in experiment [1] was 12000 nM; against c-Src, over 50 µM; against insulin receptor (INSr), over 50 µM.

`CC(=O)c1ccc2c(c1)ncn2-c1ccccc1` [Example 20, 5-Acetyl-1-phenylbenzimidazole]: the figures for the IC50 in experiment [1] and in experiment [2] were 900 nM and 14 µM, respectively.

For the compound `O=Cc1ccc(-n2cnc3ccccc32)cc1` [Example 9, 1-(4-Formylphenyl)benzimidazole], the IC50 in experiment [1] is 13500 nM; against c-Src it was over 50 µM.

As to `Oc1ccc2c(ncn2-c2ccccc2)c1O` [Example 61, 4,5-Dihydroxy-1-phenylbenzimidazole Hydrochloride], in experiment [2], the IC50 is 1.9 µM. This lies in the single-digit micromolar range.

On insulin receptor (INSr), `COc1cc2ncn(-c3ccccc3)c2cc1C` [Example 49, 5-Methoxy-6-methyl-1-phenylbenzimidazole Hydrochloride] gave an IC50 of over 50 µM.

Turning to `COc1ccc2c(c1)ncn2-c1ccsc1` [Example 56, 5-Methoxy-1-(3-thienyl)benzimidazole Hydrochloride], the IC50 was 700 nM in experiment [1], 6.5 µM in experiment [2] and over 50 µM at c-Src.

In turn, `c1ccc(-n2cnc3cc(OCC4CO4)ccc32)cc1` (racemic) [Example 34, 5-(2,3-Epoxypropoxy)-1-phenylbenzimidazole] returned an IC50 in experiment [1] of 300 nM.

For `Clc1ccc2c(c1)ncn2-c1ccccc1` [Example 15, 5-Chloro-1-phenylbenzimidazole], the figures for the IC50 in experiment [1] and in experiment [2] were 4000 nM and 51 µM, respectively.

The compound `Clc1ccc2ncn(-c3ccccc3)c2c1` [Example 42, 6-Chloro-1-phenylbenzimidazole] registered an IC50 in experiment [1] of 5400 nM.

Take `COc1c(O)ccc2c1ncn2-c1ccccc1` [Example 62, 5-Hydroxy-4-methoxy-1-phenylbenzimidazole Hydrochloride]: the figures for the IC50 in experiment [1] and in experiment [2] were 50000 nM and 50 µM, respectively.

As for `COc1cc2ncn(-c3ccccc3)c2cc1C=O` [Example 54, 5-Methoxy-1-phenylbenzimidazole-6-carboxaldehyde Hydrochloride], the values for the IC50 (in experiment [1]; against insulin receptor (INSr)) were 1100 nM and over 50 µM, respectively.

Take `COc1cc2ncn(-c3ccccc3)c2cc1OC` [Example 46, 5,6-Dimethoxy-1-phenylbenzimidazole Hydrochloride]: the figures for the half-maximal inhibitory concentration (IC50) (in experiment [2]; against c-Src; on insulin receptor (INSr)) were 25 µM, 40 µM and over 50 µM, respectively.

`CC(C)Oc1ccc2c(c1)ncn2-c1ccccc1` [Example 30, 5-Isopropoxy-1-phenylbenzimidazole Hydrochloride]: the results for the IC50 (in experiment [1]; on insulin receptor (INSr)) were under 50000 nM and over 50 µM, respectively.

Take `CN(C)CCCCOc1ccc2c(c1)ncn2-c1ccccc1` [Example 58, 5-[4-(N,N-Dimethylamino)butoxy]-1-phenylbenzimidazole Dihydrochloride]: the IC50 in experiment [1] is 200 nM; in experiment [2], 6 µM; against c-Src, 50 µM.

In the case of `OCC(O)COc1ccc2c(c1)ncn2-c1ccccc1` (centres unmarked) [Example 33, 5-(2,3-Dihydroxypropoxy)-1-phenylbenzimidazole Hydrochloride], the IC50 is 300 nM in experiment [1] and 15 µM in experiment [2].

Turning to `c1ccc(-n2cnc3cc4c(cc32)OCO4)cc1` [Example 48, 5,6-Methylenedioxy-1-phenylbenzimidazole Hydrochloride], the values for the IC50 (in experiment [2]; against insulin receptor (INSr)) were 27 µM and over 50 µM, respectively.

Compound `O=C(O)c1cc2c(cc1O)ncn2-c1ccccc1` [Example 52, 5-Hydroxy-1-phenylbenzimidazole-6-carboxylic acid Hydrobromide] had an IC50 in experiment [2] of 22 µM. In other words, the double-digit micromolar range.

For the compound `Oc1cc2ncn(-c3ccccc3)c2cc1O` [Example 47, 5,6-Dihydroxy-1-phenylbenzimidazole Hydrochloride], the IC50 is 2300 nM in experiment [1], 11 µM in experiment [2] and over 50 µM at insulin receptor (INSr).

One may read the IC50 as the point on the concentration scale where inhibition reaches its midpoint. Lower therefore signals greater potency in that assay.

The values above are taken from patent US5990146A, “Benzimidazoles for inhibiting protein tyrosine kinase mediated cellular proliferation” (Warner-Lambert Company, priority 1998, dated 1999).
